The numbers were not newly measured in patent US20140294799A1, “USE OF COMPOSITIONS HAVING A LOW POLYAMINE CONTENT IN THE PREVENTION OR TREATMENT OF ADVERSE EFFECTS LINKED TO CANCER TREATMENT” (NUTRIALYS MEDICAL NUTRITION SA, priority 2011, published 2014), which cites them from elsewhere.

Molecules are shown by their SMILES.

For this data set, the system named is skin of irradiated animals. Conditions: topical application to the skin of irradiated animals.

For the compound `N=C(N)NCCCCN` [agmatine], the effect on dermatitis result is “reduce dermatitis”.

In the case of `NCCCNCCCCNCCCN` [spermine], the effect on alopecia result is “effective in the treatment of alopecia”.
